From ChEMBL document CHEMBL5724914, “Linking interpersonal differences in gut microbiota composition and drug biotransformation activity” (2024) come the findings set out here.

Data set [1] can be described thus: The drug is tested on Z-028 corresponding to mouse gut metagenome with ENA study accession number: PRJEB37062 and ENA sample accession number: ERS12561827 for biotransformation under anaerobic condition. The drug concentrations were measured over 9 timepoints collected between 0 and 24 hours of incubation by liquid-chromatography-coupled mass spectrometry (LC–MS). Conditions: 2 µM.

The nature of data set [2]: The drug is tested on Z-027 corresponding to metagenome with ENA study accession number: PRJEB37062 and ENA sample accession number: ERS12561826 for biotransformation under anaerobic condition. The drug concentrations were measured over 9 timepoints collected between 0 and 24 hours of incubation by liquid-chromatography-coupled mass spectrometry (LC–MS). The settings on record: 2 µM.

A short description of data set [3]: The drug is tested on Z-018 corresponding to pig gut metagenome with ENA study accession number: PRJEB37062 and ENA sample accession number: ERS12561817 for biotransformation under anaerobic condition. The drug concentrations were measured over 9 timepoints collected between 0 and 24 hours of incubation by liquid-chromatography-coupled mass spectrometry (LC–MS). The settings on record: 2 µM.

Data set [4] can be described thus: The drug is tested on Z-013 corresponding to rabbit gut metagenome with ENA study accession number: PRJEB37062 and ENA sample accession number: ERS12561813 for biotransformation under anaerobic condition. The drug concentrations were measured over 9 timepoints collected between 0 and 24 hours of incubation by liquid-chromatography-coupled mass spectrometry (LC–MS). Conditions: 2 µM.

Data set [5] is described as follows: The drug is tested on Z-010 corresponding to metagenome with ENA study accession number: PRJEB37062 and ENA sample accession number: ERS12561810 for biotransformation under anaerobic condition. The drug concentrations were measured over 9 timepoints collected between 0 and 24 hours of incubation by liquid-chromatography-coupled mass spectrometry (LC–MS). Conditions: 2 µM.

Data set [6] is described as follows: The drug is tested on Z-003 corresponding to pig gut metagenome with ENA study accession number: PRJEB37062 and ENA sample accession number: ERS12561803 for biotransformation under anaerobic condition. The drug concentrations were measured over 9 timepoints collected between 0 and 24 hours of incubation by liquid-chromatography-coupled mass spectrometry (LC–MS). The settings on record: 2 µM.

The nature of data set [7]: The drug is tested on Z-002 corresponding to rabbit gut metagenome with ENA study accession number: PRJEB37062 and ENA sample accession number: ERS12561802 for biotransformation under anaerobic condition. The drug concentrations were measured over 9 timepoints collected between 0 and 24 hours of incubation by liquid-chromatography-coupled mass spectrometry (LC–MS). Conditions: 2 µM.

Data set [8] in a line: The drug is tested on WLS-086 corresponding to human gut metagenome with ENA study accession number: PRJEB37062 and ENA sample accession number: ERS12561752 for biotransformation under anaerobic condition. The drug concentrations were measured over 9 timepoints collected between 0 and 24 hours of incubation by liquid-chromatography-coupled mass spectrometry (LC–MS). Conditions: 2 µM.

The nature of data set [9]: The drug is tested on WLS-038 corresponding to human gut metagenome with ENA study accession number: PRJEB37062 and ENA sample accession number: ERS12561745 for biotransformation under anaerobic condition. The drug concentrations were measured over 9 timepoints collected between 0 and 24 hours of incubation by liquid-chromatography-coupled mass spectrometry (LC–MS). The settings on record: 2 µM.

Data set [10] in a line: The drug is tested on WLS-027 corresponding to human gut metagenome with ENA study accession number: PRJEB37062 and ENA sample accession number: ERS12561744 for biotransformation under anaerobic condition. The drug concentrations were measured over 9 timepoints collected between 0 and 24 hours of incubation by liquid-chromatography-coupled mass spectrometry (LC–MS). Conditions: 2 µM.

The conditions of data set [11]: human gut metagenome, 24 h, 2 µM.
For data set [12] the following is noted: human gut metagenome, 24 h, 2 µM. The source holds these as a separate data set.
The conditions of data set [13]: human gut metagenome, 24 h, 2 µM. This is another data set of the same source.
The conditions of data set [14]: human gut metagenome, 24 h, 2 µM. This is another data set of the same source.
The conditions of data set [15]: human gut metagenome, 24 h, 2 µM. The source holds these as a separate data set.
For data set [16] the following is noted: human gut metagenome, 24 h, 2 µM. This is another data set of the same source.
For data set [17] the following is noted: human gut metagenome, 24 h, 2 µM. The source holds these as a separate data set.
For data set [18] the following is noted: human gut metagenome, 24 h, 2 µM. This is another data set of the same source.
For data set [19] the following is noted: human gut metagenome, 24 h, 2 µM. This is another data set of the same source.
For data set [20] the following is noted: human gut metagenome, 24 h, 2 µM. This is another data set of the same source.
Also: call rule not given here.

Turning to `CCN1CCCC1CNC(=O)c1cc(S(=O)(=O)CC)c(N)cc1OC` (stereo not given) [AMISULPRIDE], the “Bacterial Biotransformation” value in data set [1] is on record as “Compound NOT metabolized”; in [2] it was “Compound NOT metabolized”; in data set [3], “Compound NOT metabolized”; in data set [4], “Compound NOT metabolized”; in data set [5], “Compound NOT metabolized”; in [6] it was “Compound metabolized”. The “Bacterial Biotransformation” value in data set [7] is listed as “Compound metabolized”; in data set [8], “Compound metabolized”; in data set [9], “Compound NOT metabolized”; in [10], “Compound NOT metabolized”; in data set [11], “Compound NOT metabolized”; in [12], “Compound NOT metabolized”. Moreover, the “Bacterial Biotransformation” value in data set [13] is recorded as “Compound NOT metabolized”; in data set [14], “Compound NOT metabolized”; in [15], “Compound NOT metabolized”; in [16], “Compound metabolized”; in data set [17], “Compound NOT metabolized”; in data set [18], “Compound metabolized”. Also, the “Bacterial Biotransformation” value in data set [19] and in data set [20] was “Compound metabolized” in each case.

Take `CC(C)NCC(O)COc1ccc(CC(N)=O)cc1` (stereo not given) [ATENOLOL]: the “Bacterial Biotransformation” value in data set [1], in data set [2], in data set [3], in data set [4], in data set [5] and in data set [6] was “Compound NOT metabolized” in each case. In addition, the “Bacterial Biotransformation” value in [7] is recorded as “Compound NOT metabolized”; in data set [8], “Compound metabolized”; in [9] it was “Compound NOT metabolized”; in [10] it was “Compound NOT metabolized”; in [11] it was “Compound NOT metabolized”; in data set [12] it was “Compound NOT metabolized”. For the same compound, the “Bacterial Biotransformation” value in data set [13], in data set [14], in data set [15], in data set [16], in [17] and in [18] was “Compound NOT metabolized” throughout. For the same compound, the “Bacterial Biotransformation” value in [19] and in [20] was “Compound metabolized” in each case.

On to `CC(=O)OCC(=O)[C@@]1(OC(C)=O)[C@@H](C)C[C@H]2[C@@H]3C[C@H](F)C4=CC(=O)C=C[C@]4(C)[C@@]3(F)[C@@H](O)C[C@@]21C` [DIFLORASONE DIACETATE], for which the “Bacterial Biotransformation” value in [1] was “Compound metabolized”; in data set [2], “Compound NOT metabolized”; in [3] it was “Compound metabolized”; in data set [4], “Compound metabolized”; in data set [5], “Compound metabolized”; in data set [6], “Compound NOT metabolized”. Further, the “Bacterial Biotransformation” value in [7], in data set [8], in data set [9], in data set [10], in data set [11] and in data set [12] was “Compound metabolized” in each case. Moreover, the “Bacterial Biotransformation” value in data set [13], in data set [14], in data set [15], in [16], in [17] and in data set [18] was “Compound metabolized” throughout. In addition, the “Bacterial Biotransformation” value in data set [19] and in data set [20] was “Compound metabolized” each time.

For the compound `CN(C)CCC=C1c2ccccc2COc2ccccc21` [DOXEPIN], the “Bacterial Biotransformation” value in [1], in data set [2], in data set [3], in [4], in data set [5] and in [6] was “Compound NOT metabolized” in each case. The “Bacterial Biotransformation” value in data set [7] was “Compound NOT metabolized”; in data set [8], “Compound NOT metabolized”; in [9], “Compound NOT metabolized”; in data set [10] it was “Compound metabolized”; in data set [11], “Compound metabolized”; in data set [12], “Compound NOT metabolized”. Besides, the “Bacterial Biotransformation” value in [13] is “Compound NOT metabolized”; in data set [14], “Compound metabolized”; in [15] it was “Compound metabolized”; in data set [16], “Compound NOT metabolized”; in [17], “Compound metabolized”; in data set [18], “Compound metabolized”. Besides, the “Bacterial Biotransformation” value in [19] and in data set [20] was “Compound metabolized” each time.

With `C[C@]12CCC(=O)C=C1[C@@H]1C[C@@H]1[C@H]1[C@@H]3[C@@H]4C[C@@H]4[C@@]4(CCC(=O)O4)[C@@]3(C)CC[C@@H]12` [DROSPIRENONE], the “Bacterial Biotransformation” value is given as “Compound NOT metabolized” in data set [1]; “Compound NOT metabolized” in data set [2]; “Compound metabolized” in data set [3]; “Compound metabolized” in data set [4]; “Compound metabolized” in data set [5]; “Compound metabolized” in data set [6]. Moreover, the “Bacterial Biotransformation” value in [7] was “Compound metabolized”; in data set [8] it was “Compound metabolized”; in [9], “Compound metabolized”; in data set [10], “Compound metabolized”; in [11] it was “Compound metabolized”; in data set [12] it was “Compound NOT metabolized”. Besides, the “Bacterial Biotransformation” value in data set [13] is reported as “Compound metabolized”; in data set [14], “Compound NOT metabolized”; in [15], “Compound NOT metabolized”; in data set [16], “Compound metabolized”; in data set [17] it was “Compound metabolized”; in data set [18], “Compound metabolized”. For the same compound, the “Bacterial Biotransformation” value is on record as “Compound metabolized” in data set [19] and “Compound NOT metabolized” in data set [20].
